Measured values taken from ChEMBL document CHEMBL5620342, “Recent advances of novel fourth generation EGFR inhibitors in overcoming C797S mutation of lung cancer therapy” (Eur J Med Chem, 2023).
Each block holds one compound with its values, some of them ahead of it.

Legend:
[1] = target: Epidermal growth factor receptor (Homo sapiens, UniProt P00533); assay: Inhibition of wild type EGFR (unknown origin) by ELISA analysis
[2] = Inhibition of EGFR T790M/C797S double mutant (unknown origin); design: species or system Homo sapiens
[3] = target: T1, Epidermal growth factor receptor (Homo sapiens, UniProt P00533, C797S/L858R/T790M); assay: Inhibition of EGFR L858R/T790M/C797S mutant (unknown origin) using TK-substrate preincubated with enzyme for 30 mins followed by substrate for 10 mins by HTRF assay
BaF3 [4] = assay: Cytotoxicity against mouse BaF3 cells harboring EGFR-Del19/T790M/C797S mutant assessed as cell growth inhibition measured after 96 hrs by CellTiter-Glo luminescent assay; assay type: functional, cell-based; details: BaF3, 96 h
BaF3 [5] = assay: Antiproliferative activity against mouse BaF3 cells harboring wild type EGFR assessed as reduction in cell growth; assay type: functional, cell-based
[6] = Inhibition of EGFR-C797S/T790M/del19 mutant in mouse BaF3 cells assessed as reduction in EGFR phosphorylation incubated for 6 hrs by Western blotting analysis; assay type: cell-based; details: BaF3, 6 h
[7] = target: T1, Epidermal growth factor receptor; assay: Inhibition of EGFR L858R/T790M/C797S triple mutant (unknown origin)
BaF3 [8] = assay: Antiproliferative activity against mouse BaF3 cells harboring EGFR L858R/T790M/C797S triple mutant after 72 hrs by resazurin dye-based fluorescence assay; assay type: functional, cell-based; details: BaF3, 72 h
BaF3 [9] = assay: Cytotoxicity against mouse BaF3 cells harboring EGFR-Del19/T790M/C797S mutant assessed as cell growth inhibition measured after 72 hrs by CellTiter-Glo luminescent assay; assay type: functional, cell-based; details: BaF3, 72 h
PC-9 [10] = assay: Antiproliferative activity against human PC-9 cells expressing EGFR Del19 mutant assessed as inhibition of cell growth measured after 72 hrs by MTT assay; assay type: functional, cell-based; details: PC-9, 72 h
PC-9 [11] = assay: Antiproliferative activity against human PC-9 cells assessed as inhibition of cell growth incubated for 72 hrs by MTT assay; assay type: functional, cell-based; details: PC-9, 72 h
PC-9 [12] = assay: Antitumor activity in OR-resistant human PC-9 cells xenografted in […] assessed as tumor growth inhibition at 30 mg/kg, po administered once daily for 14 days relative to control; assay type: functional; details: PC-9, 336 h, time 14 day, read-out: TGI
PC-9 [13] = assay: Antitumor activity in OR-resistant human PC-9 cells xenografted in […] assessed as tumor growth inhibition at 60 mg/kg, po administered once daily for 14 days relative to control; assay type: functional; details: PC-9, 336 h, time 14 day, read-out: TGI
BaF3 [14] = assay: Inhibition of EGFR phosphorylation in mouse BaF3 cells harboring EGFR L858R/T790M/C797S triple mutant at 10 uM by Western blotting analysis; assay type: cell-based
[15] = target: T1, Epidermal growth factor receptor; assay: (§1) Inhibition of […]/T790M/C797S triple mutant (unknown origin) phosphorylation expressed in mouse BaF3 cells by HTRF assay; assay type: cell-based
BaF3 [16] = assay: Cytotoxicity against mouse BaF3 cells expressing EGFR L858R mutant assessed as reduction in cell viability; assay type: functional, cell-based
BaF3 [17] = assay: Inhibition of cell proliferation of mouse BaF3 cells expressing EGFR Del19/T790M/C797S mutant (unknown origin); assay type: functional, cell-based
[18] = target: Epidermal growth factor receptor (Homo sapiens, UniProt P00533, T790M/C797S/L858R); assay: as §1; assay type: cell-based; details: baf3
BaF3 [19] = assay: Cytotoxicity against mouse BaF3 cells harboring EGFR L858R/T790M/C797S mutant assessed as reduction in cell viability incubated for 96 hrs by CellTiter-Glo assay; assay type: functional, cell-based; details: BaF3, 96 h
[20] = Oral bioavailability in CD-1 mouse at 3 mg/kg measured after 24 hrs by LC-MS/MS analysis; assay type: ADME, organism-based; details: in vivo
[21] = target: T1, Epidermal growth factor receptor; assay: Inhibition of EGFR L858R/T790M/C797S triple mutant (unknown origin) expressed in Bac-to-Bac baculovirus expression system measured after 2 hrs by ELISA method
NIH3T3 = assay: Antiproliferative activity against mouse NIH3T3 cells expressing EGFR Del19/T790M/C797S mutant assessed as reduction in cell proliferation incubated for 72 hrs by MTT assay; assay type: functional, cell-based; details: NIH3T3, 72 h
A-431 [22] = assay: Cytotoxicity against human A-431 cells expressing wild type EGFR assessed as reduction in cell viability incubated for 96 hrs by CellTiter-Glo assay; assay type: functional, cell-based; details: A-431, 96 h
A-431 [23] = assay: Antiproliferative activity against human A-431 cells […] assessed as reduction in cell growth; assay type: functional, cell-based
cells = details: Mus musculus, Ba/F3 EGFR-T790M/C797S/L858R
BaF3 [24] = assay: Cytotoxicity against mouse BaF3 cells harboring wild type EGFR assessed as reduction in cell viability incubated for 72 hrs by CellTiter-Glo assay; assay type: functional, cell-based; details: BaF3, 72 h

Chain of Epidermal growth factor receptor (Homo sapiens, UniProt P00533) (P00533 whole entry): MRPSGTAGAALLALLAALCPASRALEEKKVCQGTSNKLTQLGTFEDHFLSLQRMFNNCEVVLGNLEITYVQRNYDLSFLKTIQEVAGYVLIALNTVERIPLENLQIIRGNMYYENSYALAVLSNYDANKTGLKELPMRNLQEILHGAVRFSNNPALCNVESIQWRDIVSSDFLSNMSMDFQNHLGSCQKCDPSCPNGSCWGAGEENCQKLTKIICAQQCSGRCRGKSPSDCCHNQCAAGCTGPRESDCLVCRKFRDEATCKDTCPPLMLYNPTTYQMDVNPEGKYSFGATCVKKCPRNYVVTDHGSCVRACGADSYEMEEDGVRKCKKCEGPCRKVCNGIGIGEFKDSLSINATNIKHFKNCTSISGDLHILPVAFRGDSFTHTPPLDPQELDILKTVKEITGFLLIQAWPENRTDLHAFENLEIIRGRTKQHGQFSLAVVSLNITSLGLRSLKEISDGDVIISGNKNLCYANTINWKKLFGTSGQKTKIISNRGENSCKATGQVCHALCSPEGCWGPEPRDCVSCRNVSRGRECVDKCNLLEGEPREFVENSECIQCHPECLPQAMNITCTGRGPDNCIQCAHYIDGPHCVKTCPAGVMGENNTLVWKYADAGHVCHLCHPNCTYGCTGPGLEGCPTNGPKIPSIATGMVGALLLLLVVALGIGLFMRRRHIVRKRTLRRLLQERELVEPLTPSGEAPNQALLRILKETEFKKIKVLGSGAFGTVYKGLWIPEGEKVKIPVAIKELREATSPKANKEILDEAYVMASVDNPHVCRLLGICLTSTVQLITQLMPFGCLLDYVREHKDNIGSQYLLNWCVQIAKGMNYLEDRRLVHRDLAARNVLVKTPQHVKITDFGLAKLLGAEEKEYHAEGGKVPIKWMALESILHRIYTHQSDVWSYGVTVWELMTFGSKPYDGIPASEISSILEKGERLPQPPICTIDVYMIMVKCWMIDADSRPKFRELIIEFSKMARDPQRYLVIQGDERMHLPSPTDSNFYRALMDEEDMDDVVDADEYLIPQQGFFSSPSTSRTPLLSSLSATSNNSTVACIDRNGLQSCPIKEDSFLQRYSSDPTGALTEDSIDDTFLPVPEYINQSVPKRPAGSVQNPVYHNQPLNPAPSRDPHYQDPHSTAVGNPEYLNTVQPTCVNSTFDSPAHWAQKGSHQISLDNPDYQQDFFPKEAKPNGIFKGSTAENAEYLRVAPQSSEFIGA
T1 sequence (P00533 25-1210 T790M/C797S/L858R limits assumed): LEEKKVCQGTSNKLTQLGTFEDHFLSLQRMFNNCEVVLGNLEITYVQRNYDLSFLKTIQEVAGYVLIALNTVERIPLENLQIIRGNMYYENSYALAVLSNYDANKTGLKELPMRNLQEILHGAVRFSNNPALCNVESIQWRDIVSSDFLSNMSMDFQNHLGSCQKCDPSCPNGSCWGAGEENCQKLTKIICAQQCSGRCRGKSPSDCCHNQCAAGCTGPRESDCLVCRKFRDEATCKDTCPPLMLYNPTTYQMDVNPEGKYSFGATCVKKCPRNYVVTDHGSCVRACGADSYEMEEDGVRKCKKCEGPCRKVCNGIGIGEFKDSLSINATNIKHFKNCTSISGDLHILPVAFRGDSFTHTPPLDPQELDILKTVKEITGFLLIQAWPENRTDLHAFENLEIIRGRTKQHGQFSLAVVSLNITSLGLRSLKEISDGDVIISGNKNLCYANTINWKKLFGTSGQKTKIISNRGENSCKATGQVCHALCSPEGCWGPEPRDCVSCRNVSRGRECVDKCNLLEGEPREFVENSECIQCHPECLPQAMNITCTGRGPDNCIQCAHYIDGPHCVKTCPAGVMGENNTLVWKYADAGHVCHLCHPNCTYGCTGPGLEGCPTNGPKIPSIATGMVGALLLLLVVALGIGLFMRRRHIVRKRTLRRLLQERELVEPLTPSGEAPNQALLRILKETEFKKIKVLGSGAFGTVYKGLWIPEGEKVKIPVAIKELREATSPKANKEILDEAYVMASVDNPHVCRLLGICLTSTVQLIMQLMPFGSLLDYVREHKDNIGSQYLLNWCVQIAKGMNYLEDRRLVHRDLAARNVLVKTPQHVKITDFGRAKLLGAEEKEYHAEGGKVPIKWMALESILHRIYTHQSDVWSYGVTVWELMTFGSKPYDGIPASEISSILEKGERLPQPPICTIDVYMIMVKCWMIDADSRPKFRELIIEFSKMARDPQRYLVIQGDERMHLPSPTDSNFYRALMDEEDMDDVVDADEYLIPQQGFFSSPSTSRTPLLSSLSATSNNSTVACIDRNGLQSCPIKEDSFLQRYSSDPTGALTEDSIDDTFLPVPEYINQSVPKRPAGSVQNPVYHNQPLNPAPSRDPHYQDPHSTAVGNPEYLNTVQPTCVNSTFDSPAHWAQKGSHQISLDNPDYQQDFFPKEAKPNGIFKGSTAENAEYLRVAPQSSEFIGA
Chain of Epidermal growth factor receptor (Homo sapiens, UniProt P00533, T790M/C797S/L858R) (P00533 25-1210 T790M/C797S/L858R limits assumed): as above

Structure (SMILES): COc1ccc(-c2c3c4cc(OCCCN(C)C)c(OCCCN(C)C)cc4oc(=O)c3n3ccc4cc(O)c(OC)cc4c23)cc1O
IC50 (BaF3 [4]): 127 nM
IC50 (BaF3 [5]): 520 nM

Structure (SMILES): N#Cc1ccc(O)c(-c2nc(NCc3cccnc3)c3ccccc3n2)c1
inhibition (BaF3 [14]): 94.2%

Structure (SMILES): COc1cc(N2CCN(C(C)=O)CC2)ccc1Nc1ncc(Cl)c(Nc2ccc(NCc3ccc(S(=O)(=O)F)cc3)cc2)n1
IC50 (BaF3 [16]): 110 nM
IC50 (BaF3 [17]): > 10000 nM

Structure (SMILES): CNC(=O)c1cnc(Nc2ccnc(N3CCC(O)CC3)n2)cc1NC(C)C
IC50 [18]: 266 nM

Structure (SMILES): C=CC(=O)Nc1cc(Nc2nccc(-c3cn(C)c4ccccc34)n2)c(OC)cc1N(C)CCN(C)C [OSIMERTINIB]
IC50 (BaF3 [8]): 4140 nM
IC50 (BaF3 [9]): 3380 nM
IC50 (PC-9 [10]): 80 nM
IC50 (PC-9 [11]): 4850 nM

Structure (SMILES): Oc1ccccc1-c1nc(NCC2CCOC2)c2ccccc2n1 (configuration not stated)
inhibition (BaF3 [14]): 91%

Structure (SMILES): CC(C)n1c2cc(Nc3ccnc(-c4cnn(S(=O)(=O)C5CC5)c4)n3)ncc2c2c(OCC(F)(F)F)cc(N3CCN(C)CC3)cc21
IC50 [21]: 0.28 nM
IC50 [15]: 0.25 nM
IC50 (NIH3T3): 20 nM
IC50 (A-431 [22]): 1200 nM
IC50 (A-431 [23]): 1200 nM

Structure (SMILES): CO[C@@H]1CCN(c2nccc(Nc3cc4c(C(C)C)ccc(N5C[C@H](CS(C)(=O)=O)[C@H]5C)c4cn3)n2)C[C@@H]1F [TIGOZERTINIB]
IC50 (BaF3 [17]): 3.2 nM
IC50 (BaF3 [19]): 4 nM

Structure (SMILES): O=C(Nc1nccs1)C(c1cc(F)ccc1O)N1Cc2ccccc2C1=O (configuration not stated)
IC50 (BaF3 [19]): > 10000 nM
IC50 (BaF3 [24]): > 10000 nM

Further lines, with some results ahead:

IC50 [1]: 7.92 nM
IC50 [2]: 10.5 nM
IC50 [3]: 136 nM
Structure (SMILES): Cc1cc(N2CCN(C(c3ccccc3)c3ccccc3)CC2)nc2ccc(Cl)cc12

IC50 [6]: 2.4 nM
IC50 [7]: 3.1 nM
IC50 (BaF3 [8]): 120 nM
IC50 (PC-9 [10]): 230 nM
IC50 (PC-9 [11]): 180 nM
Structure (SMILES): CN1CCN(c2ccc(Nc3ncc(Cl)c(Nc4ccccc4P(C)(C)=O)n3)c(Br)c2)CC1
IC50 (BaF3 [9]): 90 nM
inhibition in vivo at 30 mg/kg (PC-9 [12]): 83.5%
inhibition in vivo at 60 mg/kg (PC-9 [13]): 137%

IC50 [15]: 10 nM
Structure (SMILES): CN1CCN(c2ccc(Nc3ncc4cc(CNc5ccccc5)n(C5CCCC5)c4n3)cc2)CC1

IC50 [1]: 7.59 nM
IC50 [2]: 10.8 nM
IC50 [3]: 130 nM
Structure (SMILES): Cc1cc(N2Cc3ccccc3C2)nc2ccc(Cl)cc12

IC50 [1]: 7.9 nM
IC50 [2]: 11.2 nM
IC50 [3]: 124 nM
Structure (SMILES): c1ccc(-c2cc(N3Cc4ccccc4C3)nc3ccccc23)cc1

IC50 (BaF3 [17]): 316 nM
Structure (SMILES): CCC(=O)N[C@H]1CC[C@@H](N2C(=O)N(c3ccccc3Cl)Cc3cnc(Nc4ccc(N5CCN(C)CC5)c(C)c4)nc32)CC1
IC50 (BaF3 [19]): 290 nM

bioavailability [20]: 62.3%
Structure (SMILES): COc1cc(N2CCC(N3CCN(CCC#Cc4cccc5c4CN(C4CCC(=O)NC4=O)C5=O)CC3)CC2)ccc1Nc1ncc(Cl)c(Nc2ccccc2P(C)(C)=O)n1 (configuration not stated)

IC50 (cells): 20 nM
Structure (SMILES): COc1cc(N2CCN(CCCCCCCC(=O)N[C@@H](C(=O)N3C[C@@H](O)C[C@@H]3C(=O)N[C@H](C)c3ccc(-c4nc(C)cs4)cc3)C(C)(C)C)CC2)ccc1Nc1ncc(Cl)c(Nc2ccccc2P(C)(C)=O)n1
